pIC50: −log10 of the molar value. Some results are limits rather than exact numbers.

The target in the first assay is human VPS34 (Homo sapiens (Human), UniProt Q8NEB9). Kind of assay: Human VPS34 enzyme assay (Adapta TR-FRET ADP detection). The format is biochemical. The arrangement: Percent Inhibition: dose or concentration left out as unconfirmed.
human VPS34, sequence (Q8NEB9 whole entry): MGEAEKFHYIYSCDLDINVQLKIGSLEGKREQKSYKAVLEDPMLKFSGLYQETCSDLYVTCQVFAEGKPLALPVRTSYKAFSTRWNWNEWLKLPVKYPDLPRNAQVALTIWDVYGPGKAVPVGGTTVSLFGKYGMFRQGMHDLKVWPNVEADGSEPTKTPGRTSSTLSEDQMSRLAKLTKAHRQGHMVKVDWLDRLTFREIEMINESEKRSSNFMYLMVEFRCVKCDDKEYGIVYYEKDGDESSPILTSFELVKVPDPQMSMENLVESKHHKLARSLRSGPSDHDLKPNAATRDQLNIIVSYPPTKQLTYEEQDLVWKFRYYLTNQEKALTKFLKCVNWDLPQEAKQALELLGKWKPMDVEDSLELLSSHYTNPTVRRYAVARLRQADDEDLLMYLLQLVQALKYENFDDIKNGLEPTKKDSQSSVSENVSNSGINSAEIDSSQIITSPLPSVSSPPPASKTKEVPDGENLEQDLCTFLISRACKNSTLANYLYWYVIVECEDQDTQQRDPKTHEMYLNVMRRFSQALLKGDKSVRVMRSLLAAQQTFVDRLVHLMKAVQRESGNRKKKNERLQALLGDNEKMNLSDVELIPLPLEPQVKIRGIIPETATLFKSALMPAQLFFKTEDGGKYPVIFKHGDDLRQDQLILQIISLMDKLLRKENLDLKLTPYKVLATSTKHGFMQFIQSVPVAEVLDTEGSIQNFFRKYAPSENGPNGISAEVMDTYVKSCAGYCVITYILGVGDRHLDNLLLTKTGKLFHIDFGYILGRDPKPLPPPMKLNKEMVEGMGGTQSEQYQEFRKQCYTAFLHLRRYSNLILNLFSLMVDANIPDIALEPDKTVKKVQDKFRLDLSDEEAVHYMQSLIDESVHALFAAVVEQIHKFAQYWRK
Conditions: not given
In general terms: Time-resolved FRET reads energy transfer from a long-lived donor to a nearby acceptor.
Take `Cc1nc(Nc2cc(-c3cnc(Cl)c(NS(=O)(=O)c4ccc(F)cc4F)c3C)ccn2)ccc1C#N` [Compound I-238, N-[6-chloro-2′-[(5-cyano-6-methylpyridin-2-yl)amino]-4-methyl-3,4′-bipyridin-5-yl]-2,4-difluorobenzenesulfonamide]: the “Percent Inhibition” value was 93%.

Take `CCc1c(-c2ccnc(Nc3ccnc(C)n3)c2)cnc(Cl)c1NS(=O)(=O)c1ccc(F)cc1F` [Compound I-259, N-{6-chloro-4-ethyl-2′-[(2-methylpyrimidin-4-yl)amino]-3,4′-bipyridin-5-yl}-2,4-difluorobenzenesulfonamide]: the “Percent Inhibition” value is 79%.

The same assay, now with this note: IC50 range class.
On to `CC(=O)Nc1cc(-c2cnc(N)c(C(=O)N3CCN(C)CC3)c2)ccn1` [Compound I-79, N-[6-amino-5-[(4-methylpiperazin-1-yl)carbonyl]-3,4′-bipyridin-2′-yl}acetamide], for which the negative-log IC50 (pIC50) – broadly, the negative decadic logarithm of the IC50, by convention in mol/L – was 7.30 to 8.00.

Consider `Cc1ccc(Nc2cc(-c3cnc(C)c(NS(=O)(=O)c4ccc(F)cc4F)c3)ccn2)nn1` [Compound I-307, 2,4-difluoro-N-{6-methyl-2′-[(6-methylpyridazin-3-yl)amino]-3,4′-bipyridin-5-yl}benzenesulfonamide], for which the negative-log IC50 (pIC50) is 7.30 to 8.00.

Turning to `CC(=O)Nc1cc(-c2cncc(NC(=O)Cc3ccccc3)c2)ccn1` [Compound I-106, N-(2′-acetamido-3,4′-bipyridin-5-yl)-2-phenylacetamide], the negative-log IC50 (pIC50) is < 7.00.

Turning to `Cc1nc(Nc2cc(-c3cnc(C)c(NS(=O)(=O)c4ccc(F)cc4F)c3)ccn2)ccc1C#N` [Compound I-289, N-{2′-[(5-cyano-6-methylpyridin-2-yl)amino]-6-methyl-3,4′-bipyridin-5-yl}-2,4-difluorobenzenesulfonamide], the negative logarithm of the IC50 (pIC50) is > 8.00.

The molecule `CC(=O)Nc1cc(-c2cnc(N)c(NCC3CC3)c2)ccn1` [Compound I-35, N-{6-amino-5-[(cyclopropylmethyl)amino]-3,4′-bipyridin-2′-yl}acetamide] showed a pIC50 of 7.30 to 8.00.

On to `CC(=O)Nc1cc(-c2cc(NS(=O)(=O)c3ccc(F)cc3F)c3ncnn3c2)ccn1` [Compound I-340, N-[4-(8-{[(2,4-difluorophenyl)sulfonyl]amino}[1,2,4]triazolo[1,5-a]pyridin-6-yl)pyridin-2-yl]acetamide], for which the pIC50 was 7.30 to 8.00.

`CC(=O)Nc1cc(-c2cnc(Cl)c(S(=O)(=O)NC34CC(C3)C4)c2)ccn1` [Compound I-366, N-[5-(bicyclo[1.1.1]pent-1-ylsulfamoyl)-6-chloro-3,4′-bipyridin-2′-yl]acetamide] gave a negative-log IC50 (pIC50) of 7.30 to 8.00.

Regarding `Cc1nc(Nc2cc(-c3cnc(Cl)c(NS(=O)(=O)c4ccc(F)cc4F)c3C)ccn2)ccc1C#N` [Compound I-238, N-[6-chloro-2′-[(5-cyano-6-methylpyridin-2-yl)amino]-4-methyl-3,4′-bipyridin-5-yl]-2,4-difluorobenzenesulfonamide], the pIC50 is > 8.00.

In the case of `CC(=O)Nc1cc(-c2cnc(C)c(NS(=O)(=O)c3cccnc3)c2)ccn1` [Compound I-45, N-{6-methyl-5-[(pyridin-3-ylsulfonyl)amino]-3,4′-bipyridin-2′-yl}acetamide], the pIC50 is > 8.00.

`Cc1ncc(-c2ccnc(NC(=O)OCC3(C)COC3)c2)cc1NS(=O)(=O)c1ccc(F)cc1F` [Compound I-324, (3-methyloxetan-3-yl)methyl (5-{[(2,4-difluorophenyl)sulfonyl]amino}-6-methyl-3,4′-bipyridin-2′-yl)carbamate] had a pIC50 of 7.30 to 8.00.

`COC(=O)Nc1cc(-c2cnc(N)c(S(=O)(=O)C(C)C)c2)ccn1` [Compound I-34, methyl [6-amino-5-(isopropylsulfonyl)-3,4′-bipyridin-2′-yl]carbamate]: the pIC50 was > 8.00.

On to `CC(=O)Nc1cc(-c2cnc3[nH]cc(S(=O)(=O)N(C)C)c3c2)ccn1` [Compound I-40, N-{4-[3-(dimethylsulfamoyl)-1H-pyrrolo[2,3-b]pyridin-5-yl]pyridin-2-yl}acetamide], for which the pIC50 was > 8.00.

Take `CC(=O)Nc1cc(-c2cnc(N)c(C(=O)NC3CCOCC3)c2)ccn1` [Compound I-210, 2′-acetamido-6-amino-N-(tetrahydro-2H-pyran-4-yl)-3,4′-bipyridine-5-carboxamide]: the negative logarithm of the IC50 (pIC50) was 7.00 to 7.30.

Turning to `COc1ncc(-c2ccnc(NC(C)=O)c2)cc1S(=O)(=O)NC1CCC1` [Compound I-426, N-[5-(cyclobutylsulfamoyl)-6-methoxy-3,4′-bipyridin-2′-yl]acetamide], the pIC50 was 7.30 to 8.00.

On to `COC(=O)Nc1cc(-c2cnc(C)c(N3CCCS3(=O)=O)c2)ccn1` [Compound I-146, methyl [5-(1,1-dioxidoisothiazolidin-2-yl)-6-methyl-3,4′-bipyridin-2′-yl]carbamate], for which the pIC50 was 7.30 to 8.00.

On to `CC(=O)Nc1cc(-c2cnc(N)c(C(=O)Nc3cccnc3)c2)ccn1` [Compound I-91, 2′-acetamido-6-amino-N-(pyridin-3-yl)-3,4′-bipyridine-5-carboxamide], for which the pIC50 is > 8.00.

With `CC(=O)Nc1cc(-c2cnc(C)c(NS(=O)(=O)c3cc(Cl)ccc3Cl)c2)ccn1` [Compound I-111, N-(5-{[(2,5-dichlorophenyl)sulfonyl]amino}-6-methyl-3,4′-bipyridin-2′-yl)acetamide], the pIC50 was > 8.00.

On to `CC(=O)Nc1cc(-c2cnc(N)c(N(C)S(C)(=O)=O)c2)ccn1` [Compound I-133, N-{6-amino-5-[methyl(methylsulfonyl)amino]-3,4′-bipyridin-2′-yl}acetamide], for which the pIC50 is > 8.00.

Take `CC(=O)Nc1cc(-c2cncc(C=O)c2)ccn1` [Compound I-184, N-(5-formyl-3,4′-bipyridin-2′-yl)acetamide]: the pIC50 was < 7.00.

In turn, `CC(=O)Nc1cc(-c2cncc(NS(=O)(=O)c3ccc(F)cc3F)c2C)ccn1` [Compound I-102, N-(5-{[(2,4-difluorophenyl)sulfonyl]amino]-4-methyl-3,4′-bipyridin-2′-yl)acetamide] had a negative logarithm of the IC50 (pIC50) of 7.30 to 8.00.

`Cc1nc(Nc2cc(-c3cnc(C)c(NS(=O)(=O)c4ccc(F)cc4F)c3)ccn2)nc(C2CC2)n1` [Compound I-382, N-{2′-[(4-cyclopropyl-6-methyl-1,3,5-triazin-2-yl)amino]-6-methyl-3,4′-bipyridin-5-yl}-2,4-difluorobenzenesulfonamide]: the negative-log IC50 (pIC50) is > 8.00.

In the case of `CC(=O)Nc1cc(-c2cnc3cn[nH]c3c2)ccn1` [Compound I-116, N-[4-(1H-pyrazolo[4,3-b]pyridin-6-yl)pyridin-2-yl]acetamide], the pIC50 was < 7.00.

On to `COc1ncc(-c2ccnc(NC(C)=O)c2)cc1NS(=O)(=O)N(C)C` [Compound I-220, N-{5-[(dimethylsulfamoyl)amino]-6-methoxy-3,4′-bipyridin-2′-yl}acetamide], for which the pIC50 is 7.30 to 8.00.

For the molecule `CC(=O)Nc1cc(-c2cnc(Cl)c(S(=O)(=O)NC(C)(C)C)c2C)ccn1` [Compound I-410, N-[5-(tert-butylsulfamoyl)-6-chloro-4-methyl-3,4′-bipyridin-2′-yl]acetamide], the pIC50 is 7.30 to 8.00.

For the molecule `CNc1ncc(-c2ccnc(NC(C)=O)c2)cc1S(=O)(=O)N(C(C)C)C(C)C` [Compound I-173, N-[5-(diisopropylsulfamoyl)-6-(methylamino)-3,4′-bipyridin-2′-yl]acetamide], the pIC50 was > 8.00.

Regarding `CCc1c(-c2ccnc(Nc3ccnc(C)n3)c2)cnc(Cl)c1NS(=O)(=O)c1ccc(F)cc1F` [Compound I-259, N-{6-chloro-4-ethyl-2′-[(2-methylpyrimidin-4-yl)amino]-3,4′-bipyridin-5-yl}-2,4-difluorobenzenesulfonamide], the pIC50 is > 8.00.

As to `CC(=O)Nc1cc(-c2cnc(C)c(NC(=O)c3ccc(F)cc3F)c2)ccn1` [Compound I-115, N-(2′-acetamido-6-methyl-3,4′-bipyridin-5-yl)-2,4-difluorobenzamide], the pIC50 was < 7.00.

Consider `CC(=O)Nc1cc(-c2cnc(N)c(S(=O)(=O)Nc3cccc(Cl)c3)c2)ccn1` [Compound I-97, N-[6-amino-5-[(3-chlorophenyl)sulamoyl]-3,4′-bipyridin-2′-yl]acetamide], for which the pIC50 is > 8.00.

The record behind these values is patent US9751854B2 (Millennium Pharmaceuticals, Inc., priority 2014, dated 2017).
